Experimental data taken from PubChem BioAssay (NCI).
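Grown in 96-well plates, cells were treated for 48 hours with each compound at five concentrations. Insufficient inhibition: endpoint recorded as highest concentration tested. GI50 marks 50% less growth. The concentration for full growth arrest is given as TGI.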

What was measured:
Assay in all cases: inhibition of tumour cell growth, NCI panel, 48 h
A549 NSCLC = system: A549 NSCLC
HL-60(TB) leukemia = system: HL-60(TB) leukemia
HOP-62 NSCLC = system: HOP-62 NSCLC
MALME-3M melanoma = system: MALME-3M melanoma
MDA-MB-435 = system: MDA-MB-435
OVCAR-3 ovarian = system: OVCAR-3 ovarian
OVCAR-5 ovarian = system: OVCAR-5 ovarian
PC-3 prostate = system: PC-3 prostate
SF-295 CNS = system: SF-295 CNS
UO-31 renal = system: UO-31 renal

Row | Structure (SMILES) | GI50 (A549 NSCLC) [µM] | TGI (A549 NSCLC) [µM] | GI50 (HL-60(TB) leukemia) [µM] | TGI (HL-60(TB) leukemia) [µM] | GI50 (HOP-62 NSCLC) [µM] | TGI (HOP-62 NSCLC) [µM] | GI50 (MALME-3M melanoma) [µM] | TGI (MALME-3M melanoma) [µM] | GI50 (MDA-MB-435) [µM] | TGI (MDA-MB-435) [µM] | GI50 (OVCAR-3 ovarian) [µM] | TGI (OVCAR-3 ovarian) [µM] | GI50 (OVCAR-5 ovarian) [µM] | TGI (OVCAR-5 ovarian) [µM] | GI50 (PC-3 prostate) [µM] | TGI (PC-3 prostate) [µM] | GI50 (SF-295 CNS) [µM] | TGI (SF-295 CNS) [µM] | TGI (UO-31 renal) [µM] | GI50 (UO-31 renal) [µM]
1 | COc1ccc(-c2c(C#N)cnc(N)c2-c2nc3cc(C)c(C)cc3[nH]2)cc1 | 6.54 | 72.4 | 83.6 | > 100 | 3.65 | 14.4 | 6 | 48.3 | 1.95 | 5.39 | 14.8 | 30.4 | 52.4 | > 100 | 8.86 | > 100 | 6.41 | 23.4 |  | 
2 | COc1ccc2oc3c(ccc[n+]3C)c(=O)c2c1 |  | > 100 |  | > 100 |  | > 100 |  | > 100 |  | > 100 |  | > 100 |  | > 100 |  | > 100 |  | > 100 | > 100 | 
3 | CC(=O)Nc1nc(C)c(-c2cc3c(c(S(C)(=O)=O)c2)C(=O)N([C@@H](C)C2CC2)C3)s1 | 28 | > 100 | 17.5 | > 100 | 28.2 | > 100 | 23.6 | > 100 | 52.4 | > 100 | 30.9 | > 100 | 29.9 | > 100 | 31.2 | > 100 | 31.6 | > 100 | > 100 | 24.8
4 | CC1CC(c2ccc([N+](=O)[O-])cc2)=Nc2ccccc2S1=O (configuration not stated) |  | 41.4 |  | 50.5 |  | 75 |  |  |  |  |  |  |  | 70 |  |  |  | 55.2 | 26.3 | 
5 | O=c1ccc2nc3ccc(O)cc3oc-2c1 |  | > 100 |  | 25.4 |  | > 100 |  | 8.76 |  | 3.23 |  | > 85.7 |  | > 100 |  | > 100 |  | > 100 | > 100 | 
6 | Cc1ccc(C(=O)C(C)N)cc1C (configuration not stated) |  | > 100 |  |  |  | > 100 |  | > 100 |  |  |  | > 100 |  |  |  |  |  | > 100 | > 100 | 
7 | CC(=O)O[C@@H]1CN(S(=O)(=O)c2ccc(C)cc2)C[C@@H]1C1CCCCC1 |  |  |  |  |  | 66.7 |  |  |  | 44.6 |  | 28.2 |  | > 100 |  | 46.4 |  | > 100 | > 100 | 
8 | NC(=O)N/N=C/c1ccccc1O |  |  |  | > 100 |  | > 100 |  |  |  | > 100 |  |  |  |  |  | > 100 |  | > 100 | > 100 | 
9 | COc1cc2c(cc1O)N=C[C@@H]1CCC(O)N1C2=O (mixture of isomers) |  | 71.6 |  | 11.1 |  | 2.91 |  | 1.42 |  |  |  | 1.49 |  | 18.8 |  |  |  | 5.77 | 2.79 | 
10 | CC(CNc1nc(Nc2ccc(Cl)c(Cl)c2)nc(C(Cl)(Cl)Cl)n1)N(C)C (configuration not stated) |  |  | 1.69 | 3.54 |  |  | 1.79 | 3.79 |  |  |  |  | 1.61 | 3.2 | 1.76 | 3.84 |  |  |  | 
11 | COc1ccc(/C=C/C(=O)/C=C(/C=C/c2ccc(OC)c(OC)c2OC)OB(F)F)c(OC)c1OC | 3.44 | > 100 | 0.469 | 3.96 | 3.89 | > 100 | 3.02 | 62.4 | 2.15 | > 100 |  |  | 3.3 | > 100 | 2.82 | > 100 |  |  | 3.65 | 0.96
12 | Nc1ccc2c(c1)S(=O)(=O)c1cc(N)ccc1-2 |  | > 100 |  | > 100 |  | > 100 |  |  |  | > 100 |  | > 100 |  | > 100 |  | > 100 |  | > 100 | > 100 | 
13 | CCc1ncc(C(C)(O)c2ccccc2)n1Cc1ccccc1 (configuration not stated) |  | > 100 |  |  |  |  |  | > 100 |  | 48.1 |  | > 100 |  | > 100 |  | > 100 |  | > 100 | > 100 | 
